We go through two molecules from patent US6596757B1, “Cytotoxic agents comprising polyethylene glycol-containing taxanes and their therapeutic use” (Immunogen Inc., priority 2002, dated 2003).

For one assay, the system named is MCF-7 cells. Briefly: In vitro cytotoxicity, MCF-7 cells, 72 hour exposure, surviving fraction by plating efficiency. Type of assay: cell-based. The conditions noted are these: MCF-7 (human breast tumor) cells, read-out: IC50 value towards MCF-7 cells. The procedure: (§1) Disulfide-containing and thiol-containing PEGylated taxane drugs of the invention can be evaluated for their ability to suppress proliferation of various unwanted cell lines in vitro. For example, cell lines such as the human lung carcinoma line A549, the human breast tumor line MCF-7, and the Burkitt's lymphoma line Namalwa can easily be used for the assessment of cytotoxicity of these compounds. Cells to be evaluated can be exposed to the compounds for 72 hours and the surviving fractions of cells measured in direct assays by known methods. IC50 values can then be calculated from the results of the assays.
The sulfide, disulfide, and sulfhydryl containing PEGylated taxane drugs of the invention can be evaluated for their ability to suppress proliferation of various human tumor cell lines in vitro. Two adherent cell lines A549(human lung carcinoma) and MCF-7 (human breast tumor) and the non-adherent cell line, Namalwa (Burkitt's lymphoma) are used for the assessment of cytotoxicity of these compounds. Cells are exposed to the compounds for 72 hours and the surviving fractions of cells are measured in direct assays.

The test system of another assay is A-431 cells. In words: In vitro cytotoxicity, A-431 cells. Type of assay: cell-based. To be noted: read-out: IC50 towards A-431 cells. The procedure:
as §1
Cytotoxicity of the PEGylated taxanes and their antibody conjugates to non-adherent cell lines such as Namalwa and HL-60 can be measured by back-extrapolation of cell proliferation curves as described in Goldmacher et al, 135 J. Immunol. 3648-3651 (1985). Cytotoxicity of these compounds to adherent cell lines such as SKBR3 and A431 can be determined by clonogenic assays as described in Goldmacher et al, 102 J. Cell Biol. 1312-1319 (1986).

For orientation: IC50 means the concentration needed to halve the response being measured. With `COc1ccc(OC)c(C(=O)OC2C3C4(OC(C)=O)COC4CC(O)C3(C)C(=O)C(OC(=O)CCOCCOCCOCCOCCSSC)C3=C(C)C(OC(=O)C(O)C(C=C(C)C)NC(=O)OC(C)(C)C)CC2(O)C3(C)C)c1` (stereo not drawn) [taxoid 17, 3′-Dephenyl-3′-(isobutenyl)-2-debenzoyl-2-(2,5-dimethoxybenzoyl)-10-(15-methyldithio-4,7,10,13-tetraoxapentadecanoyl)-docetaxel], the figures for the IC50 with MCF-7 cells and in the assay with A-431 cells were 0.063 nM and 0.33 nM, respectively.

`COc1ccc(OC)c(C(=O)OC2C3C4(OC(C)=O)COC4CC(OC(=O)CCOCCOCCOCCOCCSSC)C3(C)C(=O)C(O)C3=C(C)C(OC(=O)C(O)C(C=C(C)C)NC(=O)OC(C)(C)C)CC2(O)C3(C)C)c1` (stereo not drawn) [taxoid 20, 3′-Dephenyl-3′-(isobutenyl)-2-debenzoyl-2-(2,5-dimethoxybenzoyl)-7-(15-methyldithio-4,7,10,13-tetraoxapentadecanoyl)-docetaxel]: in the assay with MCF-7 cells, the IC50 was determined as 0.32 nM.
